Test results taken from patent US12551482B2, “Aurora kinase inhibitors” (The Regents of the University of California, priority 2013, dated 2026).
Read-outs that look alike come from different tables or passages of the source.

Key:
SNU-61 = test: Cancer cell line profiling, Genomics of Drug Sensitivity Project; conditions: read-out: CD532 EC50 (uM)
RPMI 2650 = test: as above; conditions: Homo sapiens, RPMI-2650, read-out: CD532 EC50 (uM)
DSH1 = test: as above; conditions: read-out: CD532 EC50 (uM)
GT3TKB = test: as above; conditions: read-out: CD532 EC50 (uM)
NB10 = test: as above; conditions: read-out: CD532 EC50 (uM)
Hep 3B2.1-7 = test: as above; conditions: read-out: CD532 EC50 (uM)
[1] = test system: SK-N-BE(2) MYCN-amplified neuroblastoma cells; test: Viability at 72 hrs, CyQUANT assay; assay type: cell-based; conditions: Homo sapiens, SKNBE2, SK-N-BE(2) cells, FIG. 1E, read-out: cellular EC50 at 72 hrs
GAK = test: Cancer cell line profiling, Genomics of Drug Sensitivity Project; conditions: read-out: CD532 EC50 (uM)
IGR-1 = test: as above; conditions: Homo sapiens, IGR-1, read-out: CD532 EC50 (uM)
phospho-pan-Aurora = test: Phospho-pan-Aurora by flow cytometry; assay type: cell-based; conditions: 1 μM, 6 hrs (FIG. 6C)
Experimental: (§1) Neuroblastoma cells were treated for the indicated time, trypsinized, washed, stained with Dylight 800 at 0.3 μg/mL (Pierce, 46421), fixed with 1.5% PFA, and permeabilized with 100% methanol. Cells were then stained with antibodies against p-MPM2 (Millipore, 16-155), p-pan-Aurora (Cell Signaling, 2914), MYCN (Thermo, PA5-17403), rabbit IgG (Invitrogen, A10542), or mouse IgG (BioLegend, 405307). Cells were stained with DAPI at 0.3 μg/mL (Invitrogen, D21490) and analyzed on the BD LSR II flow cytometer. For cell cycle analysis, cells were stimulated with EdU for 2 hours prior to harvest, then probed using the Click-iT EdU Flow Cytometry Assay Kit (Invitrogen, C10424). Cells were stained with propidium iodide (BD, 556547) and analyzed on the BD FACSCalibur flow cytometer. Data was gated using Cytobank. For viability studies, neuroblastoma cells were plated in 96-well plates at a density of 1,000 cells/well for SHEP or 4,000 cells/well for Kelly or SK—N-BE2 cells, then incubated with indicated concentrations of drug for 72 hours at 37° C. Plates were frozen at −80° C. to induce cell lysis. CyQUANT reagent mixture (Invitrogen, C7026) was added to thawed plates, then fluorescence was measured. Alternatively, resazurin (Sigma-Aldrich, R7017) was added directly to wells following drug treatment then incubated for 4 hours at 37° C. prior to measuring fluorescence. Data was analyzed using GraphPad Prism software.

NBsusSR = test: Cancer cell line profiling, Genomics of Drug Sensitivity Project; conditions: read-out: CD532 EC50 (uM)
[2] = test system: Kelly MYCN-amplified neuroblastoma cells; test: Viability at 72 hrs, CyQUANT assay; assay type: cell-based; conditions: FIG. 1F, read-out: cellular EC50 at 72 hrs
Experimental: as §1, with “Plates were frozen at −80° C. to induce cell lysis.” left out

YAPC = test: Cancer cell line profiling, Genomics of Drug Sensitivity Project; conditions: Homo sapiens, read-out: CD532 EC50 (uM)
COLO-829 = test: as above; conditions: Homo sapiens, COLO-829, read-out: CD532 EC50 (uM)
LB2518-MEL = test: as above
MKN1 = test: as above; conditions: Homo sapiens, MKN-1, read-out: CD532 EC50 (uM)
LB831-BLC = test: as above; conditions: read-out: CD532 EC50 (uM)
HMVII = test: as above; conditions: read-out: CD532 EC50 (uM)
SAS = test: as above; conditions: read-out: CD532 EC50 (uM)
TT = test: as above; assay type: cell-based; conditions: Homo sapiens, read-out: CD532 EC50 (uM), Thyroid
M-14 = test: as above; conditions: Homo sapiens, M14, read-out: CD532 EC50 (uM)
HSC-2 = test: as above; conditions: Homo sapiens, HSC-2, read-out: CD532 EC50 (uM)
SNU-449 = test: as above; conditions: Homo sapiens, SNU-449, read-out: CD532 EC50 (uM)
CAL-62 = test: as above; conditions: Homo sapiens, CAL-62, read-out: CD532 EC50 (uM)
AGS = test: as above; conditions: Homo sapiens, read-out: CD532 EC50 (uM)
COLO-800 = test: as above; conditions: Homo sapiens, COLO-800, read-out: CD532 EC50 (uM)
MZ7-mel = test: as above

## O=C(Nc1ccc(Nc2nccc(Nc3cc(C4CCCC4)[nH]n3)n2)cc1)Nc1cccc(C(F)(F)F)c1 [CD532, 1-(4-((4-((5-cyclopentyl-1H-pyrazol-3-yl)amino)pyrimidin-2-yl)amino)phenyl)-3-(3-(trifluoromethyl)phenyl)urea]
SNU-61
  EC50: 1.02 µM
RPMI 2650
  EC50: 0.412 µM
DSH1
  EC50: 0.779 µM
GT3TKB
  EC50: 1.05 µM
NB10
  EC50: 0.275 µM
Hep 3B2.1-7
  EC50: 0.877 µM
[1]
  EC50: 223 nM
GAK
  EC50: 0.823 µM
IGR-1
  EC50: 0.27 µM
phospho-pan-Aurora
  phospho-pan-Aurora: loss of phospho-pan-Aurora
NBsusSR
  EC50: 0.382 µM
[2]
  EC50: 147 nM
YAPC
  EC50: 5.34 µM
COLO-829
  EC50: 0.796 µM
LB2518-MEL; read-out: CD532 EC50 (uM), LB2518-MEL cell line, Skin
  EC50: 0.847 µM
LB2518-MEL; read-out: CD532 EC50, LB2518-MEL cell line, Skin
  EC50: 0.709 µM
MKN1
  EC50: 0.86 µM
LB831-BLC
  EC50: 1.29 µM
HMVII
  EC50: 0.746 µM
SAS
  EC50: 1.46 µM
TT
  EC50: 0.972 µM
M-14
  EC50: 0.972 µM
HSC-2
  EC50: 2.15 µM
SNU-449
  EC50: 12.1 µM
CAL-62
  EC50: 0.589 µM
AGS
  EC50: 0.346 µM
COLO-800
  EC50: 0.302 µM
MZ7-mel; read-out: CD532 EC50 (uM), MZ7-mel cell line, Skin
  EC50: 0.73 µM
MZ7-mel; read-out: CD532 EC50, MZ7-mel cell line, Skin
  EC50: 0.556 µM
